Source: EP1247803A2, “Indolinone compounds suitable for modulation of protein kinases” (Sugen, Inc., priority 1996, dated 1998)

Legend:
MET = MET biochemical kinase assay; parameters: species or system human; concentration or dose not given beside the values
Description: A met biochemical kinase assay may be performed for met generally as described above for other kinases by substituting that or the other kinases. In particular, ELISA plates are coated with goat anti-rabbit Fc antibodies, which are used to capture commercially available (from Santa Cruz Biotechnology) rabbit polyclonal antibodies to the cytoplasmic domain of human MET. […] The chimeric receptors, or MET, from these lysates are captured on the antibody coated plates. After washing away extraneous proteins, test compounds are added and an in vitro kinase assay is performed by addition of an appropriate kinase buffer (containing ATP, divalent metal ions, etc.). Incorporation of phosphate into the captured receptors is detected with an anti-phosphotyrosine antibody conjugate with horse radish peroxidase using TMB as a substrate for colorimetric detection.

EGFR = target: T1, EGFR (Homo sapiens, UniProt P00533); assay: EGFR ELISA assay (in vitro kinase activity, EGFR captured from A431 cell lysate); type: biochemical; parameters: concentration or dose not given beside the values
T1 construct: Add 7 ug A431 cell lysate per well (EGFR source); endogenous in cells; host or cells: A431
Description: To provide a consistent method for measuring the in vitro kinase activity of the EGFR in an Enzyme-linked immunosorbent assay (Elisa).
Scope. The following protocol describes the procedures used to analyze protein tyrosine kinase activity on the EGFR in an Elisa. The procedure also describes the protocol for the initial screening of drugs for inhibition or activation of protein tyrosine kinase activity.
Reagents and Supplies. • 1. […] 05-101 monoclonal anti-EGFR antibody (commercially available from UB1) -80° C, 1 ml aliquots • 3. […] TBST Buffer Formulation: 50 mM Tris pH 7.2 150 mM NaCl 0.1% Triton X-100 • 5. Blocking Buffer Formulation: 5% Carnation Instant Milk in PBS • 6. A431 cell lysate A431 cells are available from a variety of commercial sources and may be used lysed using conventional methods known to those skilled in the art or as described for lysis of the 3T3 cells in the EGF cellular assay described herein. -80° C, 1 ml aliquots • 7. TBS Buffer Formulation: 50 mM Tris pH 7.2 150 mM NaCl • 8. […] NUNC 96-well V bottom polypropylene plates Applied Scientific Catalog # AS-72092 • 11. EDTA Formulation: 200 mM EDTA pH 8.0 • 12. […] Goat anti-rabbit IgG peroxidase conjugate Biosource Catalog # ALI0404 • 14. ABTS Solution Formulation: 100 mM Citric Acid (anhydrous) 250 mM Na2HPO4 pH 4.0 0.5 mg/ml ABTS (2,2'-azino-bis(3-ethylbenzthiazoline-6-sulfonic acid) (Sigma Catalog # A-1888) Keep solution in dark at 4 C until ready to use • 15. Hydrogen peroxide 30% solution Fisher Catalog # H325 Store in the dark at 4 C until ready to use • 16. ABTS/H2O2 Formulation: 15 mls ABTS solution 2 ul H2O2 Prepare 5 minutes before use and room temperature • 17. 0.2 M HCL stock in H2O Procedure. • 1. Coat Corning 96-well elisa plates with 0.5 ug per well 05-101 antibody. Bring final volume to 100 ul per well with PBS. Coat plates overnight at 4° C. • 2. Remove unbound 05-101 from wells by inverting plate to remove liquid. Wash 1x with distilled H2O by filling wells Pat the plate on a paper towel to remove excess liquid. • 3. Block plates with 5% milk in PBS. 150 ul per well. Incubate plate 30 minutes while shaking on a microtiter plate shaker. • 4. Wash plate 3x with dionized water, then once with TBST • 5. Add 7 ug A431 cell lysate per well (EGFR source). Add PBS to final volume of 100 ul per well Incubate 30 minutes while shaking. • 6. Wash as described in step 4. • 7. At this point, drugs or extracts are added to the wells. Dilute drugs/extracts 1:100 (unless specified otherwise) in TBS + 10% DMSO in 96-well polypropylene plates. Add 120 ul TBS to ELISA plate containing captured EGFR. Add 13.5 ul diluted drugs/extracts to ELISA plate. […] Incubate plate 30 minutes while shaking. • 8. […] (150 ul final volume in well with 3 uM ATP/5 mM MnCl2 final concentration in well.) Incubate 5 minutes while shaking vigorously. *NOTE: It is critical that ATP/MnCl2 phosphorylates the receptor for 5 minutes only. It is best to add the ATP/MnCl2 with an 12 channel pipettor 1 row at a time leaving 20 seconds between each row so that the reaction may be stopped with EDTA exactly 5 minutes later (this depends on the number of plates being phosphorylated in one batch). Shake between each addition. • 9. After 5 minutes, to stop reaction, add 16.5 ul of 200 mM EDTA pH 8.0 for 20 mM final in well, shaking continuously between each addition. This is done using the same timing method as above. After last row has received EDTA, shake plate an additional minute. • 10. Wash 4x with deionized water, twice with TBST. • 11. Add rabbit polyclonal anti-phosphotyrosine serum. Dilute 1:3000 in TBST. Add 100 ul per well. Incubate 30-45 minutes while shaking. • 12. Wash as described above in step 4. • 13. Add BioSource anti-rabbit peroxidase conjugate antibody. Dilute 1:2000 in TBST. Add 100 ul per well. Incubate 30 minutes while shaking. • 14. Wash as described in step 4. • 15. Add 100 ul of ABTS/H2O2 solution to well. Incubate 5 to 10 minutes while shaking. Remove bubbles • 16. […]

T1 sequence (P00533 25-1210): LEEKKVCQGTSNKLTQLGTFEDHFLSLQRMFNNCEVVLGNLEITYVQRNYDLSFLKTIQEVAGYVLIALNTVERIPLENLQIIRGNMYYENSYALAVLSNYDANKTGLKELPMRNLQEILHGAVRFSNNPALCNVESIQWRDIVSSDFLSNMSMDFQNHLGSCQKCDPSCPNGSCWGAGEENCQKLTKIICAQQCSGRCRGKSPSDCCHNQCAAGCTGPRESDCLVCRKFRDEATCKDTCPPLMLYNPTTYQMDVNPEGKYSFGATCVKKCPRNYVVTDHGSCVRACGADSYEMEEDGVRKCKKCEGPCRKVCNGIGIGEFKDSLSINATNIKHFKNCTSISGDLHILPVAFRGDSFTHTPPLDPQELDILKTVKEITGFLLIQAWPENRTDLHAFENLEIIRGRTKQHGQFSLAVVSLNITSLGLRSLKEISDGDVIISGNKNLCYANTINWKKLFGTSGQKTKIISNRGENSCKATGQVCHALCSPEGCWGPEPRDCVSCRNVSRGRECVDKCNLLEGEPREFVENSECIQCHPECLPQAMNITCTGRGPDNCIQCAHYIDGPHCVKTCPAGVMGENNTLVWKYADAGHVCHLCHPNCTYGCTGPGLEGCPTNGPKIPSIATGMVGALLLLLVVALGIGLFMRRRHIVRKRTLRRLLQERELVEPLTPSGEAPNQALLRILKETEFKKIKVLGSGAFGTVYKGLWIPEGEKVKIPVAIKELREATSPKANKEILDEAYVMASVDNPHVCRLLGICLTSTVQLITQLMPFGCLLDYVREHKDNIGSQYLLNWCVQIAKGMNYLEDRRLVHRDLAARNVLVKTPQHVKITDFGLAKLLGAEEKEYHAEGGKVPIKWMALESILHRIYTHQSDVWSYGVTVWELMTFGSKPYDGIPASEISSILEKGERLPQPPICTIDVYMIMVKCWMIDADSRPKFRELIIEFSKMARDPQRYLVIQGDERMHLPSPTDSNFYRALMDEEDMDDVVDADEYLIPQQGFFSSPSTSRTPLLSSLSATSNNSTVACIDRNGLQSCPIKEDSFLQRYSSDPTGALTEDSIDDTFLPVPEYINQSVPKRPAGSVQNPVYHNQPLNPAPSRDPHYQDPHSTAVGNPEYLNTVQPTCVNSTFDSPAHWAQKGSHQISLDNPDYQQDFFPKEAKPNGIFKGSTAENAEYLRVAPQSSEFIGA

SMILES	Met Kinase % Inhibition (MET) [%]	Biochem EGFR %Inhibition (EGFR) [%]
Cc1cc2occ(C=C3C(=O)Nc4ccc(S(=O)(=O)Nc5ccc(C(F)(F)F)cc5)cc43)c(=O)c2cc1C [10731/E03]	20.7	10.4
CNS(=O)(=O)c1ccc2c(c1)C(=Cc1c[nH]c(=O)[nH]c1=O)C(=O)N2 [10731/D08]	44.2	16.8
O=C1Nc2c(Br)cc(Br)cc2C1=CC(c1cccs1)C(F)(F)F (centres unmarked) [10732/A02]	53.7	5.1
O=C1Nc2ccc(S(=O)(=O)Nc3ccc(C(F)(F)F)cc3)cc2C1=Cc1c[nH]c(=O)[nH]c1=O [10731/E08]	59.0	40.1
